According to ChEMBL document CHEMBL1125004, “Chemistry and pharmacology of the non-benzodiazepine anxiolytic enciprazine and related compounds” (1990):

Tests used:
[1] = system: Mus musculus; assay: Antiaggressive anxiolytic activity in the electroshock-induced fighting test in mice (po); Range (11.7-20.3); type: functional
[2] = system: Mus musculus; assay: Antiaggressive anxiolytic activity in the electroshock-induced fighting test in mice (po); Range (3.1-7.7); type: functional
[3] = system: Mus musculus; assay: Antiaggressive anxiolytic activity in the electroshock-induced fighting test in mice (po); Range (1.19-5.72); type: functional
[4] = Ratio of ED50 (rotarod) to that of ED50 (fighting); type: functional
[5] = system: Mus musculus; assay: Effect on hexobarbital induced sleep was determined in hexobarbital potentiation test (po); Range (76.3-106.2); type: functional
[6] = system: Mus musculus; assay: Antiaggressive anxiolytic activity in the electroshock-induced fighting test in mice (po); Range (7.3-11.9); type: functional
[7] = Ratio of ED50 (hexobarbital) to that of ED50 (fighting); type: functional
[8] = species on record: Mus musculus; assay: Ataxic activity in mice by rotarod test; Range (355.1-460.2); type: functional
[9] = system: Mus musculus; assay: Antiaggressive anxiolytic activity in the electroshock-induced fighting test in mice (po); Range (8.3-16.1); type: functional
[10] = system: Monkey; assay: Tested for ability to maintain self-administration after administration of 0.1 mg/kg in monkey 9083 (59.8+/-15.8); type: functional, Cercopithecidae
[11] = system: Monkey; assay: Tested for ability to maintain self-administration after administration of 0.3 mg/kg in monkey 2037 (60.1+/-5.3); type: functional, Cercopithecidae
[12] = system: Monkey; assay: Tested for ability to maintain self-administration after administration of 0.3 mg/kg in monkey 3038 (53.9+/-9.3); type: functional, Cercopithecidae
[13] = system: Monkey; assay: Tested for ability to maintain self-administration after administration of 0.3 mg/kg in monkey 2036 (44.9 +/-5.6); type: functional, Cercopithecidae
[14] = system: Monkey; assay: Tested for ability to maintain self-administration after administration of 0.3 mg/kg in monkey 9079 (56.5+/-18.0); type: functional, Cercopithecidae
[15] = system: Monkey; assay: Tested for ability to maintain self-administration after administration of 0.3 mg/kg in monkey 3017 (76.6+/-15.9); type: functional, Cercopithecidae
[16] = system: Mus musculus; assay: Antiaggressive anxiolytic activity in the electroshock-induced fighting test in mice (po); Range (1 7.3-25.4); type: functional
[17] = species on record: Mus musculus; assay: Effect on hexobarbital induced sleep was determined in hexobarbital potentiation test; Range (181.4-219.9); type: functional
[18] = system: Mus musculus; assay: Antiaggressive anxiolytic activity in the electroshock-induced fighting test in mice (po); Range (1.46-5.72); type: functional
[19] = system: Rattus norvegicus; assay: Antiaggressive anxiolytic activity in the hexagonal maze test in rat after po administration of 2.6 mg/kg; type: functional
[20] = species on record: Mus musculus; assay: Ataxic activity in mice by rotarod test; Range (87.7-114.6); type: functional
[21] = system: Mus musculus; assay: Antiaggressive anxiolytic activity in the electroshock-induced fighting test in mice (po); Range (9.4-17.88); type: functional
[22] = species on record: Mus musculus; assay: Effect on hexobarbital induced sleep was determined in hexobarbital potentiation test; Range (1 19.4-168.3); type: functional
[23] = species on record: Mus musculus; assay: Ataxic activity in mice by rotarod test; Range (231.4-298.5); type: functional
[24] = system: Mus musculus; assay: Antiaggressive anxiolytic activity in the electroshock-induced fighting test in mice (po); Range (0.69-2.88); type: functional
[25] = system: Mus musculus; assay: Antiaggressive anxiolytic activity in the electroshock-induced fighting test in mice (po); Range (13.27-18.96); type: functional
[26] = system: Mus musculus; assay: Antiaggressive anxiolytic activity in the electroshock-induced fighting test in mice (po); Range (6.62-10.07); type: functional
[27] = species on record: Mus musculus; assay: Ataxic activity in mice by rotarod test; Range (1.1-5.3); type: functional
[28] = species on record: Mus musculus; assay: Effect on hexobarbital induced sleep was determined in hexobarbital potentiation test; Range (8.3-15.4); type: functional

In the case of `COc1cc(OCC(O)CN2CCN(c3ccccc3Cl)CC2)cc(OC)c1OC.Cl` (centres undefined), the ED50 [1] is reported as 16 mg/kg.
`COc1cccc(N2CCN(CC(O)COc3cc(OC)c(OC)c(OC)c3)CC2)c1.Cl` (centres undefined) gave an ED50 [2] of 5.5 mg/kg.
`COc1cc(OCC(O)CN2CCN(c3ccccc3OC(C)=O)CC2)cc(OC)c1OC.Cl` (centres undefined) showed an ED50 [3] of 3.3 mg/kg.
With `COc1cc(OCC(O)CN2CCN(c3cccc(C(F)(F)F)c3)CC2)cc(OC)c1OC.Cl` (centres undefined) the Therapeutic index [4] was 44, the ED50 [5] was 90 mg/kg and the ED50 [6] was 9 mg/kg. For the same compound, the Therapeutic index [7] was 10 and the ED50 [8] was 400 mg/kg.
`COc1cc(OCC(O)CN2CCN(c3cccc(C)c3)CC2)cc(OC)c1OC.Cl` (centres undefined) gave an ED50 [9] of 12 mg/kg.
For `CCCC(C)C1(CC)C(=O)NC(=O)NC1=O` (centres undefined) [PENTOBARBITAL], the Effect [10] was 59.8, the Effect [11] was 60.1 and the Effect [12] was 53.9. For the same compound, the Effect [13] was 44.9, the Effect [14] was 56.5 and the Effect [15] was 76.6.
Compound `COc1cc(OCC(O)CN2CCN(c3ccccc3C(F)(F)F)CC2)cc(OC)c1OC.Cl` (centres undefined) has an ED50 [16] of 21 mg/kg.
Work on `COc1cc(OCC(O)CN2CCN(c3ccccc3NC(C)=O)CC2)cc(OC)c1OC` (centres undefined) yielded a Therapeutic index [4] of 30, an ED50 [17] of 200 mg/kg and an ED50 [18] of 3.3 mg/kg. For the same compound, the Prolongation [19] was 50%, the ED50 [20] was 100 mg/kg and the Therapeutic index [7] was 61.
With `COc1ccccc1N1CCN(CC(COc2cc(OC)c(OC)c(OC)c2)OC(=O)c2cccnc2)CC1.Cl` (centres undefined) the ED50 [21] was 14 mg/kg.
In the case of `COc1cc(OCC(O)CN2CCN(c3ccccc3N)CC2)cc(OC)c1OC.Cl` (centres undefined), the Therapeutic index [4] is reported as 185, the ED50 [22] is reported as 145 mg/kg and the ED50 [23] is reported as 260 mg/kg. It also gave an ED50 [24] of 1.4 mg/kg and a Therapeutic index [7] of 103.
In the case of `COc1ccccc1N1CCN(CC(COc2cc(OC)c(OC)c(OC)c2)OC(=O)c2cc(OC)c(OC)c(OC)c2)CC1.Cl` (centres undefined), the ED50 [25] is reported as 16 mg/kg.
Work on `O=C1CN=C(c2ccccc2)c2cc(Cl)ccc2N1CC1CC1` [PRAZEPAM] yielded a Therapeutic index [4] of 0.4, an ED50 [26] of 8 mg/kg and an ED50 [27] of 3.1 mg/kg. For the same compound, the ED50 [28] was 11.5 mg/kg and the Therapeutic index [7] was 1.4.
